Target: T1, Human ATX protein (Homo sapiens, UniProt Q13822)
T1 construct: made in house
Test: Autotaxin (ATX) assay, FRET with FS-3 substrate
Type: biochemical
Settings: upper bound bins (no greater than 100, 250 or 500 nM); FS-3 2 μM, ATX 1.0 μg/mL
Summary of the method: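 Hydrolysis of the FRET substrate FS-3 (2 μM final) unquenches fluorescein, read at excitation 485 nm and emission 538 nm after 2 h at room temperature, protected from light. Purified human ATX (1.0 μg/mL) and compound were first incubated for 30 min in pH 7.4 Tris/salt buffer containing 1 mg/mL fatty acid-free BSA.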

Compound | IC50 [µM]
O=C(O)C1CC2CCCC(C1)N2C(=O)c1cc2n(n1)CCN(C(=O)OCc1cccc(Cl)c1)C2 (centres unmarked) [Example 42, 9-(5-(((3-chlorobenzyl)oxy)carbonyl)-4,5,6,7-tetrahydropyrazolo[1,5-a]pyrazine-2-carbonyl)-9-azabicyclo[3.3.1]nonane-3-carboxylic acid] | ≤ 0.5
O=C1CN(C(=O)c2cc3n(n2)CCCN(C(=O)OCc2cc(Cl)cc(C(F)(F)F)c2)C3)CCN1 [Example 212] | ≤ 0.1
C[C@@H]1CNC[C@@H](C)N1C(=O)c1cc2n(n1)CCCN(C(=O)OCc1cc(Cl)cc(C(F)(F)F)c1)C2 [Example 161] | ≤ 0.1
CC1CN(C(=O)c2cc3n(n2)CCN(C(=O)OCc2cc(C(F)(F)F)cc(C(F)(F)F)c2)C3)CC(C)N1C(=O)OC(C)(C)C (centres unmarked) [Example 469] | ≤ 0.1
O=C(OCc1cc(C(F)(F)F)cc(C(F)(F)F)c1)N1CCCn2nc(C(=O)N3CCC(F)CC3)cc2C1 [Example 32, 3,5-Bis(trifluoromethyl)benzyl 2-(4-fluoropiperidine-1-carbonyl)-7,8-dihydro-4H-pyrazolo[1,5-a][1,4]diazepine-5(6H)-carboxylate] | ≤ 0.1
O=C(OCc1cc(C(F)(F)F)cc(C(F)(F)F)c1)N1CCCn2nc(N3CCNC4(CC4)C3)cc2C1 [Example 348] | ≤ 0.1
CC1CNCCN1C(=O)c1cc2n(n1)CCCN(C(=O)OCc1cc(Cl)cc(C(F)(F)F)c1)C2 (centres unmarked) [Example 213] | ≤ 0.1
CC(C)(C)OC(=O)N1C2CCC1CN(C(=O)c1cc3n(n1)CCN(C(=O)OCc1cc(Cl)cc(C(F)(F)F)c1)C3)C2 [Example 478] | ≤ 0.1
CN1C2CCC1CN(C(=O)c1cc3n(c1)CCCN(C(=O)OCc1cc(Cl)cc(C(F)(F)F)c1)C3)C2 [Example 278, 3-chloro-5-(trifluoromethyl)benzyl 8-(8-methyl-3,8-diazabicyclo[3.2.1]octane-3-carbonyl)-4,5-dihydro-1H-pyrrolo[1,2-a][1,4]diazepine-2(3H)-carboxylate] | ≤ 0.1
CC(NC1=NCCS1)c1cc2n(n1)CCCN(C(=O)OCc1cc(Cl)cc(C(F)(F)F)c1)C2 (centres unmarked) [Example 156, 3-chloro-5-(trifluoromethyl)benzyl 2-(1-((4,5-dihydrothiazol-2-yl)amino)ethyl)-7,8-dihydro-4H-pyrazolo[1,5-a][1,4]diazepine-5(6H)-carboxylate] | ≤ 0.1
O=C(OCc1cc(Cl)cc(C(F)(F)F)c1)N1CCn2nc(NC3CCNCC3)cc2C1 [Example 274, 3-chloro-5-(trifluoromethyl)benzyl 2-(piperidin-4-ylamino)-6,7-dihydropyrazolo[1,5-a]pyrazine-5(4H)-carboxylate] | ≤ 0.1
O=C(O)C1CCN(C(=O)c2cc3n(n2)CCCN(C(=O)OCc2cc(Cl)cc(Cl)c2)C3)CC1 [Example 87, 1-(5-(((3,5-Dichlorobenzyl)oxy)carbonyl)-5,6,7,8-tetrahydro-4H-pyrazolo[1,5-a][1,4]diazepine-2-carbonyl)piperidine-4-carboxylic acid] | ≤ 0.1
CC(NC1=NCCN1)c1cc2n(n1)CCCN(C(=O)OCc1cc(Cl)cc(C(F)(F)F)c1)C2 (centres unmarked) [Example 157, 3-chloro-5-(trifluoromethyl)benzyl 2-(1-((4,5-dihydro-1H-imidazol-2-yl)amino)ethyl)-7,8-dihydro-4H-pyrazolo[1,5-a][1,4]diazepine-5(6H)-carboxylate] | ≤ 0.25
O=C(OCc1cc(C(F)(F)F)cc(C(F)(F)F)c1)N1CCn2nc(C(=O)N3CCC3)cc2C1 [Example 485] | ≤ 0.1
O=C(O)C1CC2CCCC(C1)N2C(=O)c1cc2n(n1)CCN(C(=O)OCc1cccc(C(F)(F)F)c1)C2 (centres unmarked) [Example 43, 9-(5-(((3-(Trifluoromethyl)benzyl)oxy)carbonyl)-4,5,6,7-tetrahydropyrazolo[1,5-a]pyrazine-2-carbonyl)-9-azabicyclo[3.3.1]nonane-3-carboxylic acid] | ≤ 0.1
CNC(=O)c1cc2n(n1)CCN(C(=O)OCc1cc(C(F)(F)F)cc(C(F)(F)F)c1)C2 [Example 482] | ≤ 0.1
CN1CCN(C(=O)c2cc3n(c2)CCCN(C(=O)OCc2cc(Cl)cc(C(F)(F)F)c2)C3)CC1 [Example 277, 3-chloro-5-(trifluoromethyl)benzyl 8-(4-methylpiperazine-1-carbonyl)-4,5-dihydro-1H-pyrrolo[1,2-a][1,4]diazepine-2(3H)-carboxylate] | ≤ 0.1
CC1(C)C(NCc2cc3n(n2)CCCN(C(=O)OCc2cc(C(F)(F)F)cc(C(F)(F)F)c2)C3)CC1C(=O)O (centres unmarked) [Example 287, 3-(((5-(((3,5-bis(trifluoromethyl)benzyl)oxy)carbonyl)-5,6,7,8-tetra-hydro-4H-pyrazolo[1,5-a][1,4]diazepin-2-yl)methyl)amino)-2,2-dimethylcyclo-butanecarboxylic acid] | ≤ 0.5
O=C(OCc1cc(C(F)(F)F)cc(C(F)(F)F)c1)N1CCCn2nc(C(=O)N3CCOCC3)cc2C1 [Example 30, 3,5-Bis(trifluoromethyl)benzyl 2-(morpholine-4-carbonyl)-7,8-dihydro-4H-pyrazolo[1,5-a][1,4]diazepine-5(6H)-carboxylate] | ≤ 0.1
O=C(O)c1cc2n(n1)CCN(C(=O)OCc1cc(Cl)cc(C(F)(F)F)c1)C2 [Example 410, 5-(((3-chloro-5-(trifluoromethyl)benzyl)oxy)carbonyl)-4,5,6,7-tetrahydropyrazolo[1,5-a]pyrazine-2-carboxylic acid] | ≤ 0.25
O=C(OCc1cc(C(F)(F)F)cc(C(F)(F)F)c1)N1CCCn2nc(NC3CC4CCCC(C3)N4)cc2C1 (centres unmarked) [Example 316] | ≤ 0.1
CNC1CN(C(=O)c2cc3n(n2)CCCN(C(=O)OCc2cc(Cl)cc(C(F)(F)F)c2)C3)C1 [Example 202] | ≤ 0.1
CC1CC(Nc2cc3n(n2)CCCN(C(=O)OCc2cc(C(F)(F)F)cc(C(F)(F)F)c2)C3)CC(C)N1 (centres unmarked) [Example 322] | ≤ 0.1
O=C(OCc1cc(Cl)cc(C(F)(F)F)c1)N1CCCn2nc(-c3ccncc3)cc2C1 [Example 369, 3-chloro-5-(trifluoromethyl)benzyl 2-(pyridin-4-yl)-7,8-dihydro-4H-pyrazolo[1,5-a][1,4]diazepine-5(6H)-carboxylate] | ≤ 0.1
C#CCCCCNC(=O)c1cc2n(n1)CCCN(C(=O)OCc1cc(C(F)(F)F)cc(C(F)(F)F)c1)C2 [Example 190] | ≤ 0.1
O=C(OCc1cc(C(F)(F)F)cc(C(F)(F)F)c1)N1CCCn2nc(N3CCCNCC3)cc2C1 [Example 342] | ≤ 0.1

Further lines, results first:

IC50 [µM] | Compound
≤ 0.5 | O=C(OCc1cc(F)cc(C(F)(F)F)c1)N1CCn2cc(C(F)(F)F)nc2C1 [Example 126, 3-Fluoro-5-(trifluoromethyl)benzyl 2-(trifluoromethyl)-5,6-dihydroimidazo[1,2-a]pyrazine-7(8H)-carboxylate]
≤ 0.25 | O=C(OCc1cc(Cl)cc(Cl)c1)N1CCCn2nc(-c3nnn[nH]3)cc2C1 [Example 123, 3,5-Dichlorobenzyl 2-(1H-tetrazol-5-yl)-7,8-dihydro-4H-pyrazolo[1,5-a][1,4]diazepine-5(6H)-carboxylate]
≤ 0.1 | CCOC(=O)c1nn2c(c1Br)CN(C(=O)OCc1cc(C(F)(F)F)cc(C(F)(F)F)c1)CCC2 [Example 114, 5-(3,5-Bis(trifluoromethyl)benzyl) 2-ethyl 3-bromo-7,8-dihydro-4H-pyrazolo[1,5-a][1,4]diazepine-2,5(6H)-dicarboxylate]
≤ 0.5 | O=C(O)c1cc2n(n1)CCCN(C(=O)OCc1cccc(C(F)(F)F)c1)C2 [Example 67, 5-(((3-(Trifluoromethyl)benzyl)oxy)carbonyl)-5,6,7,8-tetrahydro-4H-pyrazolo[1,5-a][1,4]diazepine-2-carboxylic acid]
≤ 0.1 | CN1CCN(c2cc3n(n2)CCCN(C(=O)OCc2cc(C(F)(F)F)cc(C(F)(F)F)c2)C3)CC1 [Example 338, 3,5-bis(trifluoromethyl)benzyl 2-(4-methylpiperazin-1-yl)-7,8-dihydro-4H-pyrazolo[1,5-a][1,4]diazepine-5(6H)-carboxylate]
≤ 0.1 | O=C(OCc1cc(C(F)(F)F)cc(C(F)(F)F)c1)N1CCCn2nc(-c3nnn[nH]3)cc2C1 [Example 136, 3,5-Bis(trifluoromethyl)benzyl 2-(1H-tetrazol-5-yl)-7,8-dihydro-4H-pyrazolo[1,5-a][1,4]diazepine-5(6H)-carboxylate]
≤ 0.1 | CN1CC2CN(c3cc4n(n3)CCCN(C(=O)OCc3cc(C(F)(F)F)cc(C(F)(F)F)c3)C4)CC2C1 (centres unmarked) [Example 349]
≤ 0.1 | CN1CC=C(c2cc3n(n2)CCCN(C(=O)OCc2cc(C(F)(F)F)cc(C(F)(F)F)c2)C3)CC1 [Example 371, 3,5-bis(trifluoromethyl)benzyl 2-(1-methyl-1,2,3,6-tetrahydropyridin-4-yl)-7,8-dihydro-4H-pyrazolo[1,5-a][1,4]diazepine-5(6H)-carboxylate]
≤ 0.1 | CN1CCN(c2cc3n(n2)CCCN(C(=O)OCc2cc(C(F)(F)F)cc(C(F)(F)F)c2)C3)CC12CC2 [Example 353]
≤ 0.1 | CN1CCN(C(=O)c2cc3n(n2)CCN(C(=O)OCc2cc(Cl)cc(C(F)(F)F)c2)C3)C(C)(C)C1 [Example 495]
≤ 0.1 | N#CC1CN(C(=O)c2cc3n(n2)CCCN(C(=O)OCc2cc(C(F)(F)F)cc(C(F)(F)F)c2)C3)CCN1 (centres unmarked) [Example 246]
≤ 0.1 | CNC1CN(C(=O)c2cc3n(n2)CCN(C(=O)OCc2cc(C(F)(F)F)cc(C(F)(F)F)c2)C3)C1 [Example 438]
≤ 0.1 | NC1CCN(C(=O)c2cc3n(n2)CCCN(C(=O)OCc2cc(Cl)cc(Cl)c2)C3)CC1 [Example 26, 3,5-Dichlorobenzyl 2-(4-aminopiperidine-1-carbonyl)-7,8-dihydro-4H-pyrazolo[1,5-a][1,4]diazepine-5(6H)-carboxylate]
≤ 0.1 | O=C(O)C1CN(C(=O)c2cc3n(n2)CCCN(C(=O)OCc2cc(Cl)cc(C(F)(F)F)c2)C3)CCN1 (centres unmarked) [Example 227]
≤ 0.1 | O=C(OCc1cc(Cl)cc(C(F)(F)F)c1)N1CCCn2nc(C(=O)N3C[C@@H]4C[C@H]3CN4)cc2C1 [Example 204]

From patent publication US20160039825A1 (BIOGEN MA INC., priority 2013, published 2016)
